target: Sodium-dependent dopamine transporter (Homo sapiens, UniProt Q01959); test: DRUGMATRIX: Dopamine Transporter radioligand binding (ligand: [125I] RTI-55); format: cell membranes, CHO-K1, Membrane; settings: cho-k1; Not Active = under 50% inhibition at 10 µM
Sequence (Q01959 whole entry): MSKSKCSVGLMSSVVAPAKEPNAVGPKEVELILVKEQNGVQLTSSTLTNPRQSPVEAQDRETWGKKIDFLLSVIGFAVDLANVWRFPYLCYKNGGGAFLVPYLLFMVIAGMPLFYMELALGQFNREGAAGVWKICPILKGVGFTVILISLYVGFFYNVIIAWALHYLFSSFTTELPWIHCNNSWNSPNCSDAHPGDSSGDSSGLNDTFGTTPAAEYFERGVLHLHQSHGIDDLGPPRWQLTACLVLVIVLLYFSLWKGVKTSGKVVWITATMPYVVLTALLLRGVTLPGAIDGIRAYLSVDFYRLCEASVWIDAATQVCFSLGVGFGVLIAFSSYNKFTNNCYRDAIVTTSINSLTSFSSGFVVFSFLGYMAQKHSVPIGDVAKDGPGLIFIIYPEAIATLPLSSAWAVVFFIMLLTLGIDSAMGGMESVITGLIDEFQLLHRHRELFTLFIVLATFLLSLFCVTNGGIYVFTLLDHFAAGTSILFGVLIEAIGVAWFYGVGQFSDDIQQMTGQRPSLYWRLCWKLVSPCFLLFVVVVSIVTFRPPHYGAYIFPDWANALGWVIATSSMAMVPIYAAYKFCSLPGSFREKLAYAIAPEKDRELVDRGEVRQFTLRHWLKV

| SMILES | IC50 |
| --- | --- |
| COc1c(C)c2c(c(O)c1C/C=C(\C)CCC(=O)OCCN1CCOCC1)C(=O)OC2 [MYCOPHENOLATE MOFETIL] | Not Active |
| C[C@]12Cc3c[nH]nc3C[C@@H]1CC[C@@H]1[C@@H]2CC[C@@]2(C)[C@H]1CC[C@]2(C)O [STANOZOLOL] | Not Active |
| CC(C)(C)NCC(O)c1cc(O)cc(O)c1 (centres undefined) [TERBUTALINE] | Not Active |

system: not listed separately; test: DRUGMATRIX: Leukotriene, BLT (LTB4) radioligand binding (ligand: [3H]LTB4); format: cell membranes, Membrane; settings: u-937; Not Active = under 50% inhibition at 10 µM

| SMILES | IC50 | Ki |
| --- | --- | --- |
| COc1c(C)c2c(c(O)c1C/C=C(\C)CCC(=O)OCCN1CCOCC1)C(=O)OC2 [MYCOPHENOLATE MOFETIL] | Not Active | Not Active |
| C[C@]12Cc3c[nH]nc3C[C@@H]1CC[C@@H]1[C@@H]2CC[C@@]2(C)[C@H]1CC[C@]2(C)O [STANOZOLOL] | Not Active | Not Active |
| CC(C)(C)NCC(O)c1cc(O)cc(O)c1 (centres undefined) [TERBUTALINE] | Not Active | Not Active |

target: Melanocortin receptor 3 (Homo sapiens, UniProt P41968); test: not given; format: cell membranes, Membrane; settings: hek293; note: in other assays of this panel Not Active means under 50% inhibition at 10 µM
Sequence (P41968 whole entry): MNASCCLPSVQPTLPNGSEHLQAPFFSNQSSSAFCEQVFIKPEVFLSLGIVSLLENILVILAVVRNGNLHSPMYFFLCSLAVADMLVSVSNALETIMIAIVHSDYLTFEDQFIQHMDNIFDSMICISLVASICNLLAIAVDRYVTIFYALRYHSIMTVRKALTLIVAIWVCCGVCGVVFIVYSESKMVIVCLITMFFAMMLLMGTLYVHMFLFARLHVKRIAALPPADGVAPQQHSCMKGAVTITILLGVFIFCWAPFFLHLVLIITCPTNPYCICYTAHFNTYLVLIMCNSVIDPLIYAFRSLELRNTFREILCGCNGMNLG

| SMILES | IC50 |
| --- | --- |
| COc1c(C)c2c(c(O)c1C/C=C(\C)CCC(=O)OCCN1CCOCC1)C(=O)OC2 [MYCOPHENOLATE MOFETIL] | Not Active |
| C[C@]12Cc3c[nH]nc3C[C@@H]1CC[C@@H]1[C@@H]2CC[C@@]2(C)[C@H]1CC[C@]2(C)O [STANOZOLOL] | Not Active |
| CC(C)(C)NCC(O)c1cc(O)cc(O)c1 (centres undefined) [TERBUTALINE] | Not Active |

target: 5-hydroxytryptamine receptor 1B (Rattus norvegicus, UniProt P28564); test: not given; format: cell membranes, Wistar, Cerebral cortex, Membrane; settings: not given; note: in other assays of this panel Not Active means under 50% inhibition at 10 µM
Sequence (P28564 whole entry): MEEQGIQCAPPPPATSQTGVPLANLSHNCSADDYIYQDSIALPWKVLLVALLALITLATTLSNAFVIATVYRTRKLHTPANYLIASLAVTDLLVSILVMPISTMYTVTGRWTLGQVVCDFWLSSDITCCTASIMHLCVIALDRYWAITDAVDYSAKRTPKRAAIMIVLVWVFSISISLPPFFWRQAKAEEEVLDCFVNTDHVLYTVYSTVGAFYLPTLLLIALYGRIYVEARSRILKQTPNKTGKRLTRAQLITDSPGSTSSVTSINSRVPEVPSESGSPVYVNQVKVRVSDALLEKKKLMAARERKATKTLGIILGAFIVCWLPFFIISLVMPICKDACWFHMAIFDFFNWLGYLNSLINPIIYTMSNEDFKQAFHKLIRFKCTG

| SMILES | IC50 |
| --- | --- |
| COc1c(C)c2c(c(O)c1C/C=C(\C)CCC(=O)OCCN1CCOCC1)C(=O)OC2 [MYCOPHENOLATE MOFETIL] | Not Active |
| C[C@]12Cc3c[nH]nc3C[C@@H]1CC[C@@H]1[C@@H]2CC[C@@]2(C)[C@H]1CC[C@]2(C)O [STANOZOLOL] | Not Active |
| CC(C)(C)NCC(O)c1cc(O)cc(O)c1 (centres undefined) [TERBUTALINE] | Not Active |

target: Receptor tyrosine-protein kinase erbB-2 (Homo sapiens, UniProt P04626); test: biochemical; format: cell-based, Insect cells; settings: insect cells;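 note: inhibition of HER2 kinase enzyme activity, measured with Poly(Glu:Tyr) as the phosphorylation substrate; in other assays of this panel Not Active means under 50% inhibition at 10 µM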
Sequence (P04626 whole entry): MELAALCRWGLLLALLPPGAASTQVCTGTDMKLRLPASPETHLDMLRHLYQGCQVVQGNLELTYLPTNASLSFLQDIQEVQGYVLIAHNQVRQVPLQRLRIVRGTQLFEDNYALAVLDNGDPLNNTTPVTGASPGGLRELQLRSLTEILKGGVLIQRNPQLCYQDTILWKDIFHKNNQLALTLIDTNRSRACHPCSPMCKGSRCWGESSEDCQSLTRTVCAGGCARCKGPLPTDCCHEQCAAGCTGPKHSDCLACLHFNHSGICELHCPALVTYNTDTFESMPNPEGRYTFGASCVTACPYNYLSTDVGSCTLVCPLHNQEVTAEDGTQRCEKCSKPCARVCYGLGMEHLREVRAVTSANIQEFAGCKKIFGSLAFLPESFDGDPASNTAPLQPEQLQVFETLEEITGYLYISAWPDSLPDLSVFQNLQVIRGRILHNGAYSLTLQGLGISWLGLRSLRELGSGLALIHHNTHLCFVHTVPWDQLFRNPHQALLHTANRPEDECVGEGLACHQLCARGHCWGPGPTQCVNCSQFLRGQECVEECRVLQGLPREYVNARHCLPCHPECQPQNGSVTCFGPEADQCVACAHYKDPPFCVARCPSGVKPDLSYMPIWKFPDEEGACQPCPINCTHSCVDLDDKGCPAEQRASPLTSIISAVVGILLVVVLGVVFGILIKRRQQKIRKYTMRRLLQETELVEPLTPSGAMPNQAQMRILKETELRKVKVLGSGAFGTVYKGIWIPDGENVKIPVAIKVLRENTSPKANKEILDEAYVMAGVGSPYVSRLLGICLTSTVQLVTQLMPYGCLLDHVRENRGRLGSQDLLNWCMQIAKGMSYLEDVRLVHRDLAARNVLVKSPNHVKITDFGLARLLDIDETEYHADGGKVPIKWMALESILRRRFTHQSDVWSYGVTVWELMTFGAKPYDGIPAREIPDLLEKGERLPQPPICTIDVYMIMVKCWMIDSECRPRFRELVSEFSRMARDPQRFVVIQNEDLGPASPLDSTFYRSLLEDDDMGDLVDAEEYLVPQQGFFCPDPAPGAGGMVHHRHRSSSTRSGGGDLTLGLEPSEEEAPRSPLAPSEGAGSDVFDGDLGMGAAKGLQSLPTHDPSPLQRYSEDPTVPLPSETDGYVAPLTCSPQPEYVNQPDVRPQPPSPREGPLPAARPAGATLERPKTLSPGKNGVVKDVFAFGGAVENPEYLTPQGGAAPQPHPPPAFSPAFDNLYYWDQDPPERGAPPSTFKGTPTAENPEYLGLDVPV

| SMILES | IC50 |
| --- | --- |
| COc1c(C)c2c(c(O)c1C/C=C(\C)CCC(=O)OCCN1CCOCC1)C(=O)OC2 [MYCOPHENOLATE MOFETIL] | Not Active |
| C[C@]12Cc3c[nH]nc3C[C@@H]1CC[C@@H]1[C@@H]2CC[C@@]2(C)[C@H]1CC[C@]2(C)O [STANOZOLOL] | Not Active |
| CC(C)(C)NCC(O)c1cc(O)cc(O)c1 (centres undefined) [TERBUTALINE] | Not Active |

target: T1, Muscarinic acetylcholine receptor M5 (Homo sapiens, UniProt P08912); test: not given; format: cell membranes, CHO-K1, Membrane; settings: cho-k1; note: in other assays of this panel Not Active means under 50% inhibition at 10 µM
T1 sequence (P08912 whole entry): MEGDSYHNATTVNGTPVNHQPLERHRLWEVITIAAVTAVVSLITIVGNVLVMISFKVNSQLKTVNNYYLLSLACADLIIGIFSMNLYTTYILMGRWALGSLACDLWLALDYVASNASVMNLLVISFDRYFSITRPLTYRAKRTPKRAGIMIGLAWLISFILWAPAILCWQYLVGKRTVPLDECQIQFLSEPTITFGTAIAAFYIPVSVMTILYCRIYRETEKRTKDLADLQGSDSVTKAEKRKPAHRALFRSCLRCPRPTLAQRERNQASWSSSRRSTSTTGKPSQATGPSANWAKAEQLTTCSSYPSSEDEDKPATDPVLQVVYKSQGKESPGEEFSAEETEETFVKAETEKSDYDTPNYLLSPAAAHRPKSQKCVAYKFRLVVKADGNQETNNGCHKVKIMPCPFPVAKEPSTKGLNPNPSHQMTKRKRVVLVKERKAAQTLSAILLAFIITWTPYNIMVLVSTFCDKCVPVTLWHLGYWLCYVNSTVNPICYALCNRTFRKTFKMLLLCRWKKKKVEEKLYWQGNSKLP

| SMILES | IC50 |
| --- | --- |
| COc1c(C)c2c(c(O)c1C/C=C(\C)CCC(=O)OCCN1CCOCC1)C(=O)OC2 [MYCOPHENOLATE MOFETIL] | Not Active |
| C[C@]12Cc3c[nH]nc3C[C@@H]1CC[C@@H]1[C@@H]2CC[C@@]2(C)[C@H]1CC[C@]2(C)O [STANOZOLOL] | Not Active |
| CC(C)(C)NCC(O)c1cc(O)cc(O)c1 (centres undefined) [TERBUTALINE] | Not Active |

target: Melanocortin receptor 5 (Homo sapiens, UniProt P33032); test: not given; format: cell membranes, HEK293, Membrane; settings: hek293; note: in other assays of this panel Not Active means under 50% inhibition at 10 µM
Sequence (P33032 whole entry): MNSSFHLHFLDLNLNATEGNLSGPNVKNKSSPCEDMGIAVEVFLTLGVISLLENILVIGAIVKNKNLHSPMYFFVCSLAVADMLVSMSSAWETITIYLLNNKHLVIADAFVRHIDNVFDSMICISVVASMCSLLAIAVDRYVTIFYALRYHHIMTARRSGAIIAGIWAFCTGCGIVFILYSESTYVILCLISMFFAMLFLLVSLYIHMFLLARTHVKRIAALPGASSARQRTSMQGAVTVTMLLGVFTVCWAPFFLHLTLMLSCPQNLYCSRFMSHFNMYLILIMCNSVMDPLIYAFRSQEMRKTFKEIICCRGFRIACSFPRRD

| SMILES | IC50 |
| --- | --- |
| COc1c(C)c2c(c(O)c1C/C=C(\C)CCC(=O)OCCN1CCOCC1)C(=O)OC2 [MYCOPHENOLATE MOFETIL] | Not Active |
| C[C@]12Cc3c[nH]nc3C[C@@H]1CC[C@@H]1[C@@H]2CC[C@@]2(C)[C@H]1CC[C@]2(C)O [STANOZOLOL] | Not Active |
| CC(C)(C)NCC(O)c1cc(O)cc(O)c1 (centres undefined) [TERBUTALINE] | Not Active |

target: T2, Muscarinic acetylcholine receptor M4 (Homo sapiens, UniProt P08173); test: not given; format: cell membranes, CHO-K1, Membrane; settings: cho-k1; note: in other assays of this panel Not Active means under 50% inhibition at 10 µM
T2 sequence (P08173 whole entry): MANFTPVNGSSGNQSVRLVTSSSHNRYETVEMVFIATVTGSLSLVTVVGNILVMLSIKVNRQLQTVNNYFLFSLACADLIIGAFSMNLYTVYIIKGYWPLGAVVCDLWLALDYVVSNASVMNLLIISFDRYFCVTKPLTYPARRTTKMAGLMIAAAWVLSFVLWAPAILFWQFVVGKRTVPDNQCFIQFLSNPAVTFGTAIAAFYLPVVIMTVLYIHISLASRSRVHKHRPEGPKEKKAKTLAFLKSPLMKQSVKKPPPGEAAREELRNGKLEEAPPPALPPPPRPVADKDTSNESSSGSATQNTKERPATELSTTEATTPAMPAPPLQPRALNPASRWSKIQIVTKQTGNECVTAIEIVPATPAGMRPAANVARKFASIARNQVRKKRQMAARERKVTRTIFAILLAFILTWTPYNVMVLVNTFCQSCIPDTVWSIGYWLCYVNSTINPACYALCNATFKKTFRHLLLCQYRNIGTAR

| SMILES | IC50 |
| --- | --- |
| COc1c(C)c2c(c(O)c1C/C=C(\C)CCC(=O)OCCN1CCOCC1)C(=O)OC2 [MYCOPHENOLATE MOFETIL] | Not Active |
| C[C@]12Cc3c[nH]nc3C[C@@H]1CC[C@@H]1[C@@H]2CC[C@@]2(C)[C@H]1CC[C@]2(C)O [STANOZOLOL] | Not Active |
| CC(C)(C)NCC(O)c1cc(O)cc(O)c1 (centres undefined) [TERBUTALINE] | Not Active |

target: T3, Neutrophil elastase (Homo sapiens, UniProt P08246); test: not given; format: tissue-based; settings: not given
T3 sequence (P08246 whole entry): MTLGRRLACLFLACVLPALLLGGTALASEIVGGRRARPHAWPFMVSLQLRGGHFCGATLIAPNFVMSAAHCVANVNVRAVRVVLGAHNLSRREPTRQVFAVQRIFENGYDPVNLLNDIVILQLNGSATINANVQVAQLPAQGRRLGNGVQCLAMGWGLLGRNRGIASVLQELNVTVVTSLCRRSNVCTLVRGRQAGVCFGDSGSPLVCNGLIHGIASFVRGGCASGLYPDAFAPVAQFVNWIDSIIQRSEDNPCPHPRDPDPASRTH

| SMILES | IC50 |
| --- | --- |
| COc1c(C)c2c(c(O)c1C/C=C(\C)CCC(=O)OCCN1CCOCC1)C(=O)OC2 [MYCOPHENOLATE MOFETIL] | Not Active |
| C[C@]12Cc3c[nH]nc3C[C@@H]1CC[C@@H]1[C@@H]2CC[C@@]2(C)[C@H]1CC[C@]2(C)O [STANOZOLOL] | Not Active |
| CC(C)(C)NCC(O)c1cc(O)cc(O)c1 (centres undefined) [TERBUTALINE] | Not Active |

target: Tyrosine-protein kinase Fyn (Homo sapiens, UniProt P06241); test: biochemical; format: cell-based, Insect cells; settings: insect cells

| SMILES | IC50 |
| --- | --- |
| COc1c(C)c2c(c(O)c1C/C=C(\C)CCC(=O)OCCN1CCOCC1)C(=O)OC2 [MYCOPHENOLATE MOFETIL] | Not Active |
| C[C@]12Cc3c[nH]nc3C[C@@H]1CC[C@@H]1[C@@H]2CC[C@@]2(C)[C@H]1CC[C@]2(C)O [STANOZOLOL] | Not Active |
| CC(C)(C)NCC(O)c1cc(O)cc(O)c1 (centres undefined) [TERBUTALINE] | Not Active |

system: not listed separately; test: DRUGMATRIX: Sigma2 radioligand binding (ligand: [3H] Ifenprodil); format: cell membranes, Rattus norvegicus, Wistar, Brain, Membrane; settings: Not Active = under 50% inhibition at 10 µM

| SMILES | IC50 | Ki |
| --- | --- | --- |
| COc1c(C)c2c(c(O)c1C/C=C(\C)CCC(=O)OCCN1CCOCC1)C(=O)OC2 [MYCOPHENOLATE MOFETIL] | Not Active | Not Active |
| C[C@]12Cc3c[nH]nc3C[C@@H]1CC[C@@H]1[C@@H]2CC[C@@]2(C)[C@H]1CC[C@]2(C)O [STANOZOLOL] | Not Active | Not Active |
| CC(C)(C)NCC(O)c1cc(O)cc(O)c1 (centres undefined) [TERBUTALINE] | Not Active | Not Active |

system: not listed separately; test: DRUGMATRIX: GABAA, Flunitrazepam, Central radioligand binding (ligand: [3H] Flunitrazepam); format: cell membranes, Rattus norvegicus, Wistar, Brain, Membrane; settings: Not Active = under 50% inhibition at 10 µM

| SMILES | IC50 | Ki |
| --- | --- | --- |
| COc1c(C)c2c(c(O)c1C/C=C(\C)CCC(=O)OCCN1CCOCC1)C(=O)OC2 [MYCOPHENOLATE MOFETIL] | Not Active | Not Active |
| C[C@]12Cc3c[nH]nc3C[C@@H]1CC[C@@H]1[C@@H]2CC[C@@]2(C)[C@H]1CC[C@]2(C)O [STANOZOLOL] | Not Active | Not Active |
| CC(C)(C)NCC(O)c1cc(O)cc(O)c1 (centres undefined) [TERBUTALINE] | Not Active | Not Active |

target: Histamine H2 receptor (Homo sapiens, UniProt P25021); test: not given; format: cell membranes, CHO-K1, Membrane; settings: cho-k1; note: in other assays of this panel Not Active means under 50% inhibition at 10 µM
Sequence (P25021 whole entry): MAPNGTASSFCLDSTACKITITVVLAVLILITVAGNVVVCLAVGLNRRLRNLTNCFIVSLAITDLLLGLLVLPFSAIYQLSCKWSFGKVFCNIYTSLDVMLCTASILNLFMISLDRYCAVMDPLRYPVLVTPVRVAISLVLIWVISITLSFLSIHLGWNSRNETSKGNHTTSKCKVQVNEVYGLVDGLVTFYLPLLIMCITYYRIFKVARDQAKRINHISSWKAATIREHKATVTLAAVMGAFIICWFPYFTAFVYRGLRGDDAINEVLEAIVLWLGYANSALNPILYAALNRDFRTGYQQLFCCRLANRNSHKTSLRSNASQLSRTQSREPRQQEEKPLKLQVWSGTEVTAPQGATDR

| SMILES | IC50 |
| --- | --- |
| COc1c(C)c2c(c(O)c1C/C=C(\C)CCC(=O)OCCN1CCOCC1)C(=O)OC2 [MYCOPHENOLATE MOFETIL] | Not Active |
| C[C@]12Cc3c[nH]nc3C[C@@H]1CC[C@@H]1[C@@H]2CC[C@@]2(C)[C@H]1CC[C@]2(C)O [STANOZOLOL] | Not Active |
| CC(C)(C)NCC(O)c1cc(O)cc(O)c1 (centres undefined) [TERBUTALINE] | Not Active |

target: Insulin receptor (Rattus norvegicus, UniProt P15127); test: not given; format: cell membranes, Wistar, Liver, Membrane; settings: not given; note: in other assays of this panel Not Active means under 50% inhibition at 10 µM
Sequence (P15127 27-759 limits assumed): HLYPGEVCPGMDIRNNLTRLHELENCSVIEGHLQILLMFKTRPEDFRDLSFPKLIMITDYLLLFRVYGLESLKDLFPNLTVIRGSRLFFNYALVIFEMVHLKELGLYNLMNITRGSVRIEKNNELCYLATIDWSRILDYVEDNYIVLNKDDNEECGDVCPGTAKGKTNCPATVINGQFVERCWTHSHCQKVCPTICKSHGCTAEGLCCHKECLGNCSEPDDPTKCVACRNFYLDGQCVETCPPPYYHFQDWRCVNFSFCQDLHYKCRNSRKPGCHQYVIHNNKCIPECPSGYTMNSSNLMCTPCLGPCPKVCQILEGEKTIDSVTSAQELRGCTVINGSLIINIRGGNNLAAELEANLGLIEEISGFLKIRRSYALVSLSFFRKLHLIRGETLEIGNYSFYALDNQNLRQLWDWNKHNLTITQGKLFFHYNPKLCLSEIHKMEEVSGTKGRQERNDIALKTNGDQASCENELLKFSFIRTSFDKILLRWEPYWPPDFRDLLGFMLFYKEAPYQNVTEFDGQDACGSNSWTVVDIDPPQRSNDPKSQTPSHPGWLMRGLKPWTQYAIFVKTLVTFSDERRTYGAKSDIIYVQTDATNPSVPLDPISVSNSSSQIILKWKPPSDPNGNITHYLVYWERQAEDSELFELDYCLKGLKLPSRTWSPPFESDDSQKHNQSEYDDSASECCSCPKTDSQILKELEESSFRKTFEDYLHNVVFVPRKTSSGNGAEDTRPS
Sequence (P15127 764-1383 limits assumed): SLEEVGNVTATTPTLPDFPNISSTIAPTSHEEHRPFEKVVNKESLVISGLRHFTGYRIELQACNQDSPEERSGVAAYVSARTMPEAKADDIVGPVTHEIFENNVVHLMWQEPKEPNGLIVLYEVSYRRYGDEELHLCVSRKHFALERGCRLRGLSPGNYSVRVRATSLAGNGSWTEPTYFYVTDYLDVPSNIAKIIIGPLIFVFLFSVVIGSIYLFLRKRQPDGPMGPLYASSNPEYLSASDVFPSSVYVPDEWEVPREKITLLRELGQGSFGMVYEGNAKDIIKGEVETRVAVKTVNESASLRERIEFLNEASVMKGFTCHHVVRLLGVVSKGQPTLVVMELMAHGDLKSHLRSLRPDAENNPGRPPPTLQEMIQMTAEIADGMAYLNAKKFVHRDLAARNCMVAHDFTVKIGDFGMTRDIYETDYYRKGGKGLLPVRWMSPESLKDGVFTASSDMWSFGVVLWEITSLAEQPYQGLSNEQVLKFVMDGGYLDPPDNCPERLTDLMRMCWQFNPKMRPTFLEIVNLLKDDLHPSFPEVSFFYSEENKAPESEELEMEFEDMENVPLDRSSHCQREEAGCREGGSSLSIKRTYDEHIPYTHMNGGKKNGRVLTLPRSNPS

| SMILES | IC50 |
| --- | --- |
| COc1c(C)c2c(c(O)c1C/C=C(\C)CCC(=O)OCCN1CCOCC1)C(=O)OC2 [MYCOPHENOLATE MOFETIL] | Not Active |
| C[C@]12Cc3c[nH]nc3C[C@@H]1CC[C@@H]1[C@@H]2CC[C@@]2(C)[C@H]1CC[C@]2(C)O [STANOZOLOL] | Not Active |
| CC(C)(C)NCC(O)c1cc(O)cc(O)c1 (centres undefined) [TERBUTALINE] | Not Active |

target: T4, Caspase-1 (Homo sapiens, UniProt P29466); test: not given; set-up: species or system Escherichia coli; settings: not given
T4 sequence (P29466 whole entry): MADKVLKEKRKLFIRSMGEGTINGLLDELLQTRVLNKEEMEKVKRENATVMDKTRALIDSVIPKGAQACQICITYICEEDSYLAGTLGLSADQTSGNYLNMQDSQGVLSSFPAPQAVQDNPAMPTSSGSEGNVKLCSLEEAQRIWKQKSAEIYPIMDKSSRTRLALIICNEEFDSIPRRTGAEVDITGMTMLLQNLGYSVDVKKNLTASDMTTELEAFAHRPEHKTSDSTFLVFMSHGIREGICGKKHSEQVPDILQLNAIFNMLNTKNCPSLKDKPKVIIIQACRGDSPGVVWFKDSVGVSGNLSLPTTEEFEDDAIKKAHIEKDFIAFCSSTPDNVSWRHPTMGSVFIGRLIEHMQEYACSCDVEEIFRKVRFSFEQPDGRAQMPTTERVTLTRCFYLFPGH

| SMILES | IC50 |
| --- | --- |
| COc1c(C)c2c(c(O)c1C/C=C(\C)CCC(=O)OCCN1CCOCC1)C(=O)OC2 [MYCOPHENOLATE MOFETIL] | Not Active |
| C[C@]12Cc3c[nH]nc3C[C@@H]1CC[C@@H]1[C@@H]2CC[C@@]2(C)[C@H]1CC[C@]2(C)O [STANOZOLOL] | Not Active |
| CC(C)(C)NCC(O)c1cc(O)cc(O)c1 (centres undefined) [TERBUTALINE] | Not Active |

— ChEMBL document CHEMBL1909046, “DrugMatrix in vitro pharmacology data”
